Measurements reported in ChEMBL document CHEMBL2203185, “Development of sub-nanomolar dipeptidic ligands of neuropeptide FF receptors” (Bioorg Med Chem Lett, 2012).

How the values were obtained:
Assay type in all cases: cell-based
[1] = target: T1, Neuropeptide FF receptor 2 (Homo sapiens, UniProt Q9Y5X5); assay: Displacement of [3H]FFRF-NH2 from human flag-tagged NPFF2 receptor expressed in CHO cells at 500 nM by scintillation counting
[2] = target: T1, Neuropeptide FF receptor 2; assay: Displacement of [3H]FFRF-NH2 from human flag-tagged NPFF2 receptor expressed in CHO cells at 5 uM by scintillation counting
[3] = target: T2, Neuropeptide FF receptor 1 (Homo sapiens, UniProt Q9GZQ6); assay: Displacement of [3H]FFRF-NH2 from human flag-tagged NPFF1 receptor expressed in CHO cells at 500 nM by scintillation counting
T2 sequence (Q9GZQ6 whole entry): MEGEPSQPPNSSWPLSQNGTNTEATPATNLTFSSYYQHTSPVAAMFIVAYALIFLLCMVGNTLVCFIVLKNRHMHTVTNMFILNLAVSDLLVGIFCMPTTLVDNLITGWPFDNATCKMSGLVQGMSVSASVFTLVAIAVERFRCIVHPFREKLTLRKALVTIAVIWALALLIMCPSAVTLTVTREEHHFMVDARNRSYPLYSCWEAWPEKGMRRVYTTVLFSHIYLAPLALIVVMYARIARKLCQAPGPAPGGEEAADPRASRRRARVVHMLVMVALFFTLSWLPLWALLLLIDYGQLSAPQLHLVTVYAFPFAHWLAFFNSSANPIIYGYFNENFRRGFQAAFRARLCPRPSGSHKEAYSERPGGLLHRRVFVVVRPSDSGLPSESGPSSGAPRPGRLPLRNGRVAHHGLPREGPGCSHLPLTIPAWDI

[4] = target: T2, Neuropeptide FF receptor 1; assay: Displacement of [3H]FFRF-NH2 from human flag-tagged NPFF1 receptor expressed in CHO cells at 5 uM by scintillation counting

T1 sequence (Q9Y5X5 whole entry): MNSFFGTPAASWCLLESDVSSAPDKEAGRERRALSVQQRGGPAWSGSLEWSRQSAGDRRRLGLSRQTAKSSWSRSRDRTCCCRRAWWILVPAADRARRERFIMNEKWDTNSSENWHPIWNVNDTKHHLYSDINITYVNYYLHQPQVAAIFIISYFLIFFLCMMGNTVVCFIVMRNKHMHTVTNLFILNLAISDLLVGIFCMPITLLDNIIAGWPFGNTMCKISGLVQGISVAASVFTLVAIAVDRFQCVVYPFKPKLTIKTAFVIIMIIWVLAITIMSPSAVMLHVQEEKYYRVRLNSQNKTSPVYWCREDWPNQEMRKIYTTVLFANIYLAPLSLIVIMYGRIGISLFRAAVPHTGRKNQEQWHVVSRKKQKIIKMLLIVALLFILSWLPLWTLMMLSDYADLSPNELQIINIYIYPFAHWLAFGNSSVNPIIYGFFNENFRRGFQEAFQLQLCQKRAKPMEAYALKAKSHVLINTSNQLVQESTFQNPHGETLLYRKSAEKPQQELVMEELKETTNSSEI

SMILES | inhibition [1] [%] | inhibition [2] [%] | inhibition [3] [%] | inhibition [4] [%]
COc1cccc(CC(=O)N[C@@H](CCCNC(=N)N)C(=O)N[C@@H](Cc2ccccc2)C(N)=O)c1 | 19 | 50 | 42 | 89
N=C(N)NCCC[C@H](NC(=O)/C=C/c1cnc[nH]1)C(=O)N[C@@H](Cc1ccccc1)C(N)=O | 0 | 18 | 1 | 22
N=C(N)NCCC[C@H](NC(=O)c1ccc(Cl)cc1Cl)C(=O)N[C@@H](Cc1ccccc1)C(N)=O | 2 | 38 | 0 | 75
N=C(N)NCCC[C@H](NC(=O)c1ccccc1-c1ccccc1)C(=O)N[C@@H](Cc1ccccc1)C(N)=O | 22 | 30 | 96 | 100
N=C(N)NCCC[C@H](NC(=O)CCC(=O)O)C(=O)N[C@@H](Cc1ccccc1)C(N)=O | 0 | 20 | 29 | 34
COc1ccc(CC(=O)N[C@@H](CCCNC(=N)N)C(=O)N[C@@H](Cc2ccccc2)C(N)=O)cc1OC | 0 | 28 | 8 | 70
CCCCCC(=O)N[C@@H](CCCNC(=N)N)C(=O)N[C@@H](Cc1ccccc1)C(N)=O | 30 | 53 | 45 | 95
N=C(N)NCCC[C@H](NC(=O)Cc1ccccc1)C(=O)N[C@@H](Cc1ccccc1)C(N)=O | 5 | 52 | 26 | 82
N=C(N)NCCC[C@H](NC(=O)c1ccc2nc[nH]c2c1)C(=O)N[C@@H](Cc1ccccc1)C(N)=O | 8 | 27 | 9 | 28
N=C(N)NCCC[C@H](NC(=O)c1c(Cl)cccc1Cl)C(=O)N[C@@H](Cc1ccccc1)C(N)=O | 0 | 11 | 30 | 85
N=C(N)NCCC[C@H](NC(=O)Cc1ccccc1O)C(=O)N[C@@H](Cc1ccccc1)C(N)=O | 16 | 37 | 27 | 92
N=C(N)NCCC[C@H](NC(=O)c1cccc2ccccc12)C(=O)N[C@@H](Cc1ccccc1)C(N)=O | 37 | 82 | 40 | 90
CCCCCCCCCCC(=O)N[C@@H](CCCNC(=N)N)C(=O)N[C@@H](Cc1ccccc1)C(N)=O | 13 | 33 | 44 | 100
N=C(N)NCCC[C@H](NC(=O)c1cccnc1)C(=O)N[C@@H](Cc1ccccc1)C(N)=O | 9 | 23 | 11 | 64
N=C(N)NCCC[C@@H](NC(=O)Cc1ccccc1)C(=O)N[C@@H](Cc1ccccc1)C(N)=O | 30 | 40 | 68 | 87
COc1ccc(/C=C/C(=O)N[C@@H](CCCNC(=N)N)C(=O)N[C@@H](Cc2ccccc2)C(N)=O)cc1 | 21 | 64 | 35 | 100
N=C(N)NCCC[C@H](NC(=O)Cc1ccc(Cl)cc1)C(=O)N[C@@H](Cc1ccccc1)C(N)=O | 9 | 63 | 62 | 100
CC(C)(C)C(=O)N[C@@H](CCCNC(=N)N)C(=O)N[C@@H](Cc1ccccc1)C(N)=O | 38 | 48 | 35 | 91
N=C(N)NCCC[C@@H](NC(=O)C12CC3CC(CC(C3)C1)C2)C(=O)N[C@H](Cc1ccccc1)C(N)=O | 11 | 57 | 57 | 100
N=C(N)NCCC[C@H](NC(=O)c1nc2ccccc2[nH]1)C(=O)N[C@@H](Cc1ccccc1)C(N)=O | 12 | 49 | 35 | 98
